In patent US9944971B2, “Determination of direct thrombin inhibitors in fluids like serum or urine” (DOASENSE GmbH, priority 2011, dated 2018):

How the values were obtained:
thrombin = biological target: T1, thrombin (Bos taurus, UniProt P00735); test: Chromogenic thrombin (factor IIa) inhibition test with substrate S-2238, absorption at 405 nm; type: biochemical; conditions: samples of plasma, serum and urine spiked at different concentrations, FIGS. 2 and 3
T1 construct: purchased Chromogenix
Description: Dissolve 1 ampule thrombin 10 U with 1 ml aqua. dest and is brought to 11.5 ml with Tris-Buffer. Additionally, add 1 ml aprotinin 500 KIU/ml.
The concentration of Dabigatran and Hirudin was carried out using the standard curve. The concentration of Dabigatran/Hirudin was determined by the optical density (OD) of the sample.

[1] = Concentration of dabigatran in urine of a treated patient, read from curve of spiked urine; parameters: species or system human
Description: This program quantifies the colors red, yellow and blue. […] Mean values were calculated from double values.

| inhibition of the activity of thrombin and release of para-nitroaniline from chromogenic substrate S2238 (thrombin) | concentration of dabigatran ([1]; human urine from a patient treated with dabigatran, undiluted) | concentration of dabigatran ([1]; patient urine diluted 1:10 with urine not containing dabigatran) | concentration of dabigatran ([1]; patient urine diluted 1:100 with urine not containing dabigatran) | Compound |
| --- | --- | --- | --- | --- |
| in a dose-dependent manner |  |  |  | Hirudin |
|  | 85 ng | 8.5 ng | 0.85 ng | [H]/N=C(/N)c1ccc(NCc2nc3cc(C(=O)N(CCC(=O)O)c4ccccn4)ccc3n2C)cc1 [Dabigatran] |
